Here are results for 19 compounds from patent publication US6423689B1, “Peptidyl calcium channel blockers” (Warner-Lambert Company, priority 1997, dated 2002).

Each structure is given as a SMILES string. pIC50: −log10 of the molar value.

In the first experiment the target is T1, N-type Ca2+ channels in IMR-32 cells (Homo sapiens, UniProt Q00975).
T1 construct: host or cells: IMR-32 cells, differentiated with dibutyryl cAMP and bromodeoxyuridine
T1 sequence (Q00975 whole entry): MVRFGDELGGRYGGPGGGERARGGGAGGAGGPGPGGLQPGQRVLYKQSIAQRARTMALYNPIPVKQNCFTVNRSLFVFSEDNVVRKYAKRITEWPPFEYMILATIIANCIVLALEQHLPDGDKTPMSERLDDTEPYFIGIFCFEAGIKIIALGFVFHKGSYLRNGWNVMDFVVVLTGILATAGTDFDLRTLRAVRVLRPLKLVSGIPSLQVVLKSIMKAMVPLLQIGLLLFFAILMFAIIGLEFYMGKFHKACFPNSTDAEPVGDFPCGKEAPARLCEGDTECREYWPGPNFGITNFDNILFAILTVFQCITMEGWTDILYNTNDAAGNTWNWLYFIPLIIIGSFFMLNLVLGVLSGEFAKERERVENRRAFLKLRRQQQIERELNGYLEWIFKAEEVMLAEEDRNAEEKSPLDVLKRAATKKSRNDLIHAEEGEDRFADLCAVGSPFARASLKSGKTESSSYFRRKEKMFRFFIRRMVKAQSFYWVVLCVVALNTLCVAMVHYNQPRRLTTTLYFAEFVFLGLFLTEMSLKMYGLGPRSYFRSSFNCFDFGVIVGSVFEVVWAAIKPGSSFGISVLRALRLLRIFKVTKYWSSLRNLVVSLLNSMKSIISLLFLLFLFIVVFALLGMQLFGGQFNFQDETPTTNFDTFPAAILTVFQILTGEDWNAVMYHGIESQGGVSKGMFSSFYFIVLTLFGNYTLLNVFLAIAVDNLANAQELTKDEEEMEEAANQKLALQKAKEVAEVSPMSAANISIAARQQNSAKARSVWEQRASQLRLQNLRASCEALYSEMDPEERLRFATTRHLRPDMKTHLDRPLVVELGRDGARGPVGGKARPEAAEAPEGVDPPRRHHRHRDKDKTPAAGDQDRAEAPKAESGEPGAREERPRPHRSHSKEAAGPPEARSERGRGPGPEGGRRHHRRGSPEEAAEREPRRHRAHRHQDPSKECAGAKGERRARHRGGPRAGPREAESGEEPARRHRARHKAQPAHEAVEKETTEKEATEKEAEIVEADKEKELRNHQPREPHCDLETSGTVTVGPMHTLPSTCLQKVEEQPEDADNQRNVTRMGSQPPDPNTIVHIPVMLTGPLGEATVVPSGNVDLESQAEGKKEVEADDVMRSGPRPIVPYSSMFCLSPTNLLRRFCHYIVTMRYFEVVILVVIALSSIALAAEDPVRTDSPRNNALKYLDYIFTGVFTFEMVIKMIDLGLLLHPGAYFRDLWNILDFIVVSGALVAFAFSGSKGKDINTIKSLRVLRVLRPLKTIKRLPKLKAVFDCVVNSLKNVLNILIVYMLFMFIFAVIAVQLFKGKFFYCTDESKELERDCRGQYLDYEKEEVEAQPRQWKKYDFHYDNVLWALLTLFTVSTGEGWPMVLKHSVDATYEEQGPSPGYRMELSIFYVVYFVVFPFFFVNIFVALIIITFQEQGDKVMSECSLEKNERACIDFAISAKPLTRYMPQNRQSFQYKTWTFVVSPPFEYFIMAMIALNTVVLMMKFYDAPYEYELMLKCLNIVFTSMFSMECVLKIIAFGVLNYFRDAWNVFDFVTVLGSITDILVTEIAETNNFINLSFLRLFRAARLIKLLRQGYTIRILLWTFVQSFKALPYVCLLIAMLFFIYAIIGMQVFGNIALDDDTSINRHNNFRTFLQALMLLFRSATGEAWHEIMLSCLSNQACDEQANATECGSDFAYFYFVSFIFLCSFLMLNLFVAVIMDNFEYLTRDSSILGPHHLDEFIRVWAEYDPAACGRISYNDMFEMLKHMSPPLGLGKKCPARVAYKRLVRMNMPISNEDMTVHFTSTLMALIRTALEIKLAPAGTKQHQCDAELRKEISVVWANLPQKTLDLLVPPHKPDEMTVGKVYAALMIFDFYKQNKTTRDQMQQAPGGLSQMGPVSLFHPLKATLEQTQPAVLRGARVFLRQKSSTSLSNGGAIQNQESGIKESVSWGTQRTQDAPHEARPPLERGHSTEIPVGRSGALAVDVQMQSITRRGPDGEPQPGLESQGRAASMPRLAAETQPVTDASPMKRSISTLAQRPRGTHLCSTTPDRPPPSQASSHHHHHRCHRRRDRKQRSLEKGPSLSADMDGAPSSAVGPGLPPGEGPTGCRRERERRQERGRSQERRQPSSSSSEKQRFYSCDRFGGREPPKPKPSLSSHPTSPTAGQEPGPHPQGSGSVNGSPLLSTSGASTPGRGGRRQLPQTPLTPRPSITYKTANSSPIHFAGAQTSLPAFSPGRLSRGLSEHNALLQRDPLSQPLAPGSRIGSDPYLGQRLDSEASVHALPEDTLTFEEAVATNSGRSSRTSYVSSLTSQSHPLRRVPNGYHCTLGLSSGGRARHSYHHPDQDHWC
T1 sequence (P54289 25-956 partner limits assumed): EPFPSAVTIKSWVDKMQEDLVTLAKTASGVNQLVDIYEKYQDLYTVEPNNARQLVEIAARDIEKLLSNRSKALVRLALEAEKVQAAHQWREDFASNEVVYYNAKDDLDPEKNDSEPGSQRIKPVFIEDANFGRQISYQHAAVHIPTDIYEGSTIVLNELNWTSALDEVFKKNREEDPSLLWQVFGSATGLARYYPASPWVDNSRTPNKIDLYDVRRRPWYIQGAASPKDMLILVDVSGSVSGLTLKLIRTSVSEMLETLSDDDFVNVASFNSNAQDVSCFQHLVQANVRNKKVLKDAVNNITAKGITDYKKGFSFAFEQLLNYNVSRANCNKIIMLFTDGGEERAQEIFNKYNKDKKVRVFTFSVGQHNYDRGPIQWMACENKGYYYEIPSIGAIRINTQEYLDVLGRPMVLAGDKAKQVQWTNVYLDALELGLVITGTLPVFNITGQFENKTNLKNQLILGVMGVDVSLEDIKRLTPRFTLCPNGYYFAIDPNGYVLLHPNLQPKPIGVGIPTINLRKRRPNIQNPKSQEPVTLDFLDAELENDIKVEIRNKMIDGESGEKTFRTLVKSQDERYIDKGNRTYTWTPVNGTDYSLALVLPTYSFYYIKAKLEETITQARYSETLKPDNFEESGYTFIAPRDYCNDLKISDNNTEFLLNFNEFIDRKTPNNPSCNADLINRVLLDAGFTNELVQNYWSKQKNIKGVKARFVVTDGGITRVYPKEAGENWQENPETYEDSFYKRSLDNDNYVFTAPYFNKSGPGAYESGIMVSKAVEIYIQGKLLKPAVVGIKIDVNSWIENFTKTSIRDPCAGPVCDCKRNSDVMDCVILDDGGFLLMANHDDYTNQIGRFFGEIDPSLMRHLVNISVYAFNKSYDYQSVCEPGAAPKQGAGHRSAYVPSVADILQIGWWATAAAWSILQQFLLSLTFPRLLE
T1 sequence (P54289 957-1103 partner limits assumed): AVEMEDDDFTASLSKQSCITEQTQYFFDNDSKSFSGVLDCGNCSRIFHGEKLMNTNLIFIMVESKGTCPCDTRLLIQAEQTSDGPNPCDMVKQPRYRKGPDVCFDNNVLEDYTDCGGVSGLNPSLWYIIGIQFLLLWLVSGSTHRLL
T1 sequence (P54284 whole entry partner): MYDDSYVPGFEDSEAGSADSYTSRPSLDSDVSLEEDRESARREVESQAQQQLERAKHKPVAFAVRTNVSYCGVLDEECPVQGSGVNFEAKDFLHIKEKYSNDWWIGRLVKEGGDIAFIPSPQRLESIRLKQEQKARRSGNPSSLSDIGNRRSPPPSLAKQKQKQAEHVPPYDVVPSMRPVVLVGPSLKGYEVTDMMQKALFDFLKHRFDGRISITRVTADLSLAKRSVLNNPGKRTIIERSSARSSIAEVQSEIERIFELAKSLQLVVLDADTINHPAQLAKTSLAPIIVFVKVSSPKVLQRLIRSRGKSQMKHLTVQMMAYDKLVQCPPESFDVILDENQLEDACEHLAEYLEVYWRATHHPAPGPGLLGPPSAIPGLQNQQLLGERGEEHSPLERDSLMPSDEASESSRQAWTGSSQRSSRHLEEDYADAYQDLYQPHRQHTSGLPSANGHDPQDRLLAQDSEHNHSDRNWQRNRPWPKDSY
The experiment is described as follows: Inhibition of N-type calcium flux in IMR-32 cells (Indo-1 fluorescence, nitrendipine present). Type of experiment: cell-based. The settings on record: 1 μM. The method, boiled down:
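Differentiated IMR-32 cells (7–13 days) were loaded with 5 μM Indo-1 AM, preincubated with compound for 10 min at 30° C, and depolarized with KCl/CaCl2 stimulation solution, with 5 μM nitrendipine blocking L-channels. Peak-minus-basal 400/490 nm emission ratio was plotted against drug concentration, and IC50 came from four-parameter logistic fits.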
(Calcium flux is commonly read through the fluorescence of an indicator in the cells.)
With `CC(=O)N[C@H]1CCN(C(=O)[C@H](Cc2ccc(OCc3ccccc3)cc2)NC(=O)[C@H](CC(C)C)NC(=O)N2CCCCCC2)C1` [Example 244], the “Inhibition of Calcium Flux in IMR-32 Cells % Inhibition at 1 μM” value was 24%.

The same experiment, now with this note: 10 μM.
As to `CC(=O)N[C@H]1CCN(C(=O)[C@H](Cc2ccc(OCc3ccccc3)cc2)NC(=O)[C@H](CC(C)C)NC(=O)N2CCCCCC2)C1` [Example 244], the “Inhibition of Calcium Flux in IMR-32 Cells % Inhibition at 10 μM” value came out at 73%.

The same experiment, now with this note: IMR-32.
Consider `CCC(C)NC(=O)C(Cc1ccc(OCc2ccccc2)cc1)NC(=O)C(CC(C)C)NC(=O)N1CCCCCC1` (stereo not shown) [Example 243, Azepane-1-carboxylic acid {1-[2-(4-benzyloxy-phenyl)-1-sec-butylcarbamoyl-ethylcarbamoyl]-3-methyl-butyl}-amide], for which the inhibition at 1 µM turned out to be 48% and the inhibition at 10 µM is 89%.

Turning to `CCC(COC)NC(=O)C(Cc1ccc(OCc2ccccc2)cc1)NC(=O)C(CC(C)C)NC(=O)N1CCCCCC1` (stereo not shown) [Example 245, Azepane-1-carboxylic acid {1-[2-(4-benzyloxy-phenyl)-1-(1-methoxymethyl-propylcarbamoyl)-ethylcarbamoyl]-3-methyl-butyl}-amide], the inhibition at 1 µM came to 57% and the inhibition at 10 µM worked out at 89%.

With `CC(C)C[C@H](NC(=O)N1CCCCCC1)C(=O)N[C@@H](Cc1ccc(OCc2ccccc2)cc1)C(=O)Nc1cccnc1` [Example 254, [S-(R*,R*)]-Azepane-1-carboxylic acid {1-[2-(4-benzyloxy-phenyl)-1-(pyridin-3-ylcarbamoyl)-ethylcarbamoyl]-3-methyl-butyl}-amide], the inhibition at 1 µM turned out to be 39% and the inhibition at 10 µM came to 83%.

`CC(C)C[C@H](NC(=O)N1CCCCCC1)C(=O)N[C@@H](Cc1ccc(OCc2ccccc2)cc1)C(=O)NCC1CCNCC1` [Example 262, [S-(R*,R*)]-Azepane-1-carboxylic acid (1-{-2-(4-benzyloxy-phenyl)-1-[(piperidin-4-ylmethyl)-carbamoyl]-ethylcarbamoyl]-3-methyl-butyl}-amide]: the inhibition at 10 µM came to 17%.

The same experiment, now with this note: IMR-32 cells, 5 μM nitrendipine, K+ depolarization.
Regarding `CC(C)CC(NC(=O)N1CCCCCC1)C(=O)NC(Cc1ccc(OCc2ccccc2)cc1)C(=O)NCC1CCN(Cc2ccccc2)C1` (stereo not shown) [Example 250, Azepane-1-carboxylic acid (1-{2-(4-benzyloxy-phenyl)-1-[(1-benzyl-pyrrolidin-3-ylmethyl)-carbamoyl]-ethylcarbamoyl}-3-methyl-butyl)-amide], the pIC50 was 6.57.

As to `CC(C)C[C@H](NC(=O)N1CCCCCC1)C(=O)N[C@@H](Cc1ccc(OCc2ccccc2)cc1)C(=O)N(CCO)Cc1ccccc1` [Example 251, S-(R*,R*)]-Azepane-1-carboxylic acid {1-[1-[benzyl-(2-hydroxy-ethyl)-carbamoyl]-2-(4-benzyloxy-phenyl)-ethylcarbamoyl]-3-methyl-butyl}-amide], the pIC50 was 6.13.

For the compound `CC(C)C[C@H](NC(=O)N1CCCCCC1)C(=O)N[C@@H](Cc1ccc(OCc2ccccc2)cc1)C(=O)NCCNCc1ccccc1` [Example 252, [S-(R*,R*)]-Azepane-1-carboxylic acid {1-[1-(2-benzylamino-ethylcarbamoyl)-2-(4-benzyloxy-phenyl)-ethylcarbamoyl]-3-methyl-butyl}-amide], the pIC50 was 6.55.

As to `CC(C)C[C@H](NC(=O)N1CCCCCC1)C(=O)N[C@@H](Cc1ccc(OCc2ccccc2)cc1)C(=O)Nc1cccnc1` [Example 254, [S-(R*,R*)]-Azepane-1-carboxylic acid {1-[2-(4-benzyloxy-phenyl)-1-(pyridin-3-ylcarbamoyl)-ethylcarbamoyl]-3-methyl-butyl}-amide], the pIC50 is 5.80.

With `CC(C)C[C@H](NC(=O)N1CCCCCC1)C(=O)N[C@@H](Cc1ccc(OCc2ccccc2)cc1)C(=O)NCCCO` [Example 255, [S-(R*,R*)]-Azepane-1-carboxylic acid {1-[2-(4-benzyloxy-phenyl)-1-(3-hydroxy-propylcarbamoyl)-ethylcarbamoyl]-3-methyl-butyl}-amide], the pIC50 was 5.37.

On to `CC(C)CC(NC(=O)N1CCCCCC1)C(=O)NC(Cc1ccc(OCc2ccccc2)cc1)C(=O)N1CCCC(CO)C1` (stereo not shown) [Example 256, Azepane-1-carboxylic acid {1-[1-(4-benzyloxy-benzyl)-2-(3-hydroxymethyl-piperidin-1-yl)-2-oxo-ethylcarbamoyl]-3-methyl-butyl}-amide], for which the pIC50 was 5.82.

As to `CC(C)C[C@H](NC(=O)N1CCCCCC1)C(=O)N[C@@H](Cc1ccc(OCc2ccccc2)cc1)C(=O)NC1CCNC1` (stereo partly drawn) [Example 258, [S-(R*,R*)]-Azepane-1-carboxylic acid {1-[2-(4-benzyloxy-phenyl)-1-(pyrrolidin-3-ylcarbamoyl)-ethylcarbamoyl]-3-methyl-butyl}-amide], the pIC50 was 5.44.

On to `CC(C)C[C@H](NC(=O)N1CCCCCC1)C(=O)N[C@@H](Cc1ccc(OCc2ccccc2)cc1)C(=O)N1CCCNCC1` [Example 259, [S-(R*,R*)]-Azepane-1-carboxylic acid {1-[2-(4-benzyloxy-phenyl)-1-(1,4]diazepane-1-carbonyl)-ethylcarbamoyl]-3-methyl-butyl}-amide], for which the pIC50 is 5.62.

As for `CC(C)C[C@H](NC(=O)N1CCCCCC1)C(=O)N[C@@H](Cc1ccc(OCc2ccccc2)cc1)C(=O)NCC1CCNCC1` [Example 262, [S-(R*,R*)]-Azepane-1-carboxylic acid (1-{-2-(4-benzyloxy-phenyl)-1-[(piperidin-4-ylmethyl)-carbamoyl]-ethylcarbamoyl]-3-methyl-butyl}-amide], the pIC50 was 4.29.

`CC(C)C[C@H](NC(=O)N1CCCCCC1)C(=O)N[C@@H](Cc1ccc(OCc2ccccc2)cc1)C(=O)NCc1ccccc1` [Example 263, [S-(R*,R*)]-Azepane-1-carboxylic acid {1-[1-benzylcarbamoyl-2-(4-benzyloxy-phenyl)-ethylcarbamoyl]-3-methyl-butyl}-amide]: the pIC50 was 5.92.

Turning to `COc1ccc(N2CCN(C(=O)[C@H](Cc3ccc(OCc4ccccc4)cc3)NC(=O)[C@H](CC(C)C)NC(=O)N3CCCCCC3)CC2)cc1` [Example 264, [S-(R*,R*)]-Azepane-1-carboxylic acid (1-{1-(4-benzyloxy-benzyl)-2-[4-(4-methoxy-phenyl)-piperazin-1-yl]-2-oxo-ethylcarbamoyl}-3-methyl-butyl)-amide], the pIC50 is 6.13.

Regarding `CC(C)C[C@H](NC(=O)N1CCCCCC1)C(=O)N[C@@H](Cc1ccc(OCc2ccccc2)cc1)C(=O)N1CCC(Cc2ccccc2)CC1` [Example 265, [S-(R*,R*)]-Azepane-1-carboxylic acid {1-[1-(4-benzyloxy-benzyl)-2-(4-benzyl-piperidin-1-yl)-2-oxo-ethylcarbamoyl]-3-methyl-butyl}-amide], the pIC50 is 6.00.

Regarding `CC(C)C[C@H](NC(=O)N1CCCCCC1)C(=O)N[C@@H](Cc1ccc(OCc2ccccc2)cc1)C(=O)NC(C)(C)CO` [Example 266, Azepane-1-carboxylic acid {(S)-1-[(S)-2-(4-benzyloxy-phenyl)-1-(2-hydroxy-1,1-dimethyl-ethylcarbamoyl)-ethylcarbamoyl]-3-methyl-butyl}-amide], the pIC50 was 5.74.

Turning to `Cc1cc(NC(=O)[C@H](Cc2ccc(OCc3ccccc3)cc2)NC(=O)[C@H](CC(C)C)NC(=O)N2CCCCCC2)c(C)cc1O` [Example 267, [S-(R*,R*)]-Azepane-1-carboxylic acid {1-[2-(4-benzyloxy-phenyl)-1-(4-hydroxy-2,5-dimethyl-phenylcarbamoyl)-ethylcarbamoyl]-3-methyl-butyl}-amide], the pIC50 was 5.36.

As to `CC(C)C[C@H](NC(=O)N1CCCCCC1)C(=O)N[C@@H](Cc1ccc(OCc2ccccc2)cc1)C(=O)NCCCN1CCCC1` [Example 268, [S-(R*,R*)]-Azepane-1-carboxylic acid {1-[2-(4-benzyloxy-phenyl)-1-(3-pyrrolidin-1-yl-propylcarbamoyl)-ethylcarbamoyl]-3-methyl-butyl}-amide], the pIC50 was 5.54.

With `CC(C)C[C@H](NC(=O)N1CCCCCC1)C(=O)N[C@@H](Cc1ccc(OCc2ccccc2)cc1)C(=O)Nc1cccc(O)c1` [Example 269, [S-(R*,R*)]-Azepane-1-carboxylic acid {1-[2-(4-benzyloxy-phenyl)-1-(3-hydroxy-phenylcarbamoyl)-ethylcarbamoyl]-3-methyl-butyl}-amide], the pIC50 was 5.55.

As a reminder, the inhibition is the relative decrease from the control value, in per cent. The term pIC50 denotes the IC50 on a negative log10 scale, so that one unit is a factor of ten.
